Source: article PMC9395504 (Investigational New Drugs, 2022)
Entries after “also recorded” stand apart in the source; their conditions may differ. Like-named read-outs stand apart in the source and are kept apart here. Marks after values point to notes of the source that are not given here.

Experiments:
[1] = system: serum MIC-1 protein; conditions: single-agent AMG 232, cited from earlier work
[2] = system: TP53-WT patient-derived melanoma xenografts; conditions: 50 mg/kg, alone or combined with dabrafenib and trametinib; cited from earlier work
[3] = Safety: adverse events by NCI-CTCAE v4.0, phase 1 study Part 1; type: in vivo, human
Description: (§1) We defined the dose-limiting toxicity (DLT) period as the first 28 days of each dose-escalation cohort’s treatment cycle (DLT window). […] Non-hematologic DLTs included grade ≥3 nausea, vomiting, or diarrhea enduring >48 hours despite standard medical management, grade 3 fatigue persisting >7 days or grade 4 fatigue, any grade ≥3 metabolic laboratory abnormalities that are not controlled within 48 hours by standard medical management.

[4] = system: TP53-WT cancer xenograft models; conditions: daily oral administration; cited from earlier work
[5] = Dose escalation (3+3+3): dose-limiting toxicity and maximum tolerated dose; type: in vivo, human; conditions: once daily, seven days of a 21-day cycle
Description: Trametinib, 2 mg once daily (both Arms), and dabrafenib, 150 mg twice daily (Arm 1 only), were subsequently started on day 8, cycle 1 (Fig. 1). Treatment was administered continuously in consecutive treatment cycles until disease progression, intolerability, or withdrawal of consent.
as §1

[6] = Plasma pharmacokinetics of AMG 232 at steady state (LC-MS/MS, noncompartmental); type: in vivo, human; conditions: for AUC(0-t): read-out: AUC24hr
Text: The following PK parameters were estimated: maximum observed plasma concentration (Cmax), time to reach Cmax (tmax), area-under-the-plasma concentration-time curve (AUC), terminal phase half-life (t1/2,z), and apparent total body clearance (CL/F). We performed noncompartmental analyses for PK parameter estimation using Phoenix® WinNonlin® version 6.4 or later software (Certara™, Princeton, NJ). […] We prepared descriptive statistics, tables, and graphs using Phoenix® WinNonlin® and Prism version 9.1.1 (GraphPad Software, San Diego, CA).

[7] = All patients, N=31, attributed to AMG 232 only
[8] = All patients, N=31, attributed to any drug
[9] = human, plasma, oral, 120 mg, Cycle 1 Day 7, AMG 232 monotherapy, Arm 2, 120 mg, geometric mean (CV%)
[10] = human, plasma, oral, 120 mg, Cycle 2 Day 7, co-administered with T + D, Arm 1, 120 mg, geometric mean (CV%)
[11] = human, plasma, oral, 120 mg, Cycle 2 Day 7, co-administered with T, Arm 2, 120 mg, geometric mean (CV%)
[12] = human, plasma, oral, 180 mg, Cycle 1 Day 7, AMG 232 monotherapy, Arm 1, 180 mg, geometric mean (CV%)
[13] = human, plasma, oral, 180 mg, Cycle 2 Day 7, co-administered with T + D, Arm 1, 180 mg, geometric mean (CV%)
[14] = human, plasma, oral, 240 mg, Cycle 1 Day 7, AMG 232 monotherapy, Arm 2, 240 mg, geometric mean (CV%)
[15] = human, plasma, oral, 240 mg, Cycle 2 Day 7, co-administered with T, Arm 2, 240 mg, geometric mean, n = 2

CC(C)[C@@H](CS(=O)(=O)C(C)C)N1C(=O)[C@@](C)(CC(=O)O)C[C@H](c2cccc(Cl)c2)[C@H]1c1ccc(Cl)cc1 [AMG 232]
biologically effective AMG 232 dose in humans ([1]; daily): at least 240 mg | daily dose at which significant increases in serum MIC-1 protein were seen [1]: higher than 240 mg | antitumor activity [2]: demonstrated antitumor activity | Share of treatment-emergent AEs attributable to AMG 232 ([3]; 240 of 614 AEs, in 30 subjects): 39% | AEs Grade 1 ([3]; All patients, N=31): 31 (100) N (%) | AEs Grade 2 ([3]; All patients, N=31): 30 (97) N (%) | AEs Grade 3 ([3]; All patients, N=31): 25 (81) N (%) | AEs Grade 4 ([3]; All patients, N=31): 2 (6) N (%) | AEs leading to AMG 232 d/c ([3]; All patients, N=31): 7 (23) N (%) | AEs leading to dabraf d/c ([3]; All patients, N=31): 2 (6) N (%) | Serious AE Adrenal insufficiency ([3]; All patients, N=31): 2 (6) N (%) | Serious AE Anemia ([3]; All patients, N=31): 1 (3) N (%) | Serious AE Cellulitis ([3]; All patients, N=31): 2 (6) N (%) | Serious AE Dehydration ([3]; All patients, N=31): 3 (10) N (%) | Serious AE Diarrhea ([3]; All patients, N=31): 4 (13) N (%) | Serious AE Fatigue ([3]; All patients, N=31): 1 (3) N (%) | Serious AE Hypotension ([3]; All patients, N=31): 1 (3) N (%) | Serious AE Nausea ([3]; All patients, N=31): 5 (16) N (%) | Serious AE Peripheral Edema ([3]; All patients, N=31): 1 (3) N (%) | Serious AE Pulmonary embolism ([3]; All patients, N=31): 5 (16) N (%) | Serious AE Pyrexia ([3]; All patients, N=31): 5 (16) N (%) | Serious AE Seizure ([3]; All patients, N=31): 3 (10) N (%) | Serious AE Thrombocytopenia ([3]; All patients, N=31): 1 (3) N (%) | Serious AE Vomiting ([3]; All patients, N=31): 5 (16) N (%) | AE AST increased [3, 7]: 3 (10) N (%) | AE Abdominal pain [3, 7]: 5 (16) N (%) | AE Adrenal insufficiency [3, 7]: 0 N (%) | AE Anemia [3, 7]: 5 (16) N (%) | AE Cellulitis [3, 7]: 0 N (%) | AE Chills [3, 7]: 2 (6) N (%) | AE Cough [3, 7]: 2 (6) N (%) | AE Decreased appetite [3, 7]: 13 (42) N (%) | AE Dehydration [3, 7]: 1 (3) N (%) | AE Dermatitis acneiform [3, 7]: 3 (10) N (%) | AE Diarrhea [3, 7]: 24 (77) N (%) | AE Dizziness [3, 7]: 3 (10) N (%) | AE Dry mouth [3, 7]: 3 (10) N (%) | AE Dysgeusia [3, 7]: 4 (13) N (%) | AE Dyspepsia [3, 7]: 3 (10) N (%) | AE Fatigue [3, 7]: 23 (74) N (%) | AE Headache [3, 7]: 3 (10) N (%) | AE Hypertension [3, 7]: 2 (6) N (%) | AE Hypotension [3, 7]: 1 (3) N (%) | AE Lipase increased [3, 7]: 4 (13) N (%) | AE Malaise [3, 7]: 4 (13) N (%) | AE Nausea [3, 7]: 27 (87) N (%) | AE Neutropenia [3, 7]: 3 (10) N (%) | AE Peripheral Edema [3, 7]: 1 (3) N (%) | AE Pruritus [3, 7]: 0 N (%) | AE Pulmonary embolism [3, 7]: 2 (6) N (%) | AE Pyrexia [3, 7]: 2 (6) N (%) | AE Rash [3, 7]: 2 (6) N (%) | AE Seizure [3, 7]: 0 N (%) | AE Thrombocytopenia [3, 7]: 3 (10) N (%) | AE Vomiting [3, 7]: 21 (68) N (%) | AE AST increased [3, 8]: 6 (19) N (%) | AE Abdominal pain [3, 8]: 6 (19) N (%) | AE Adrenal insufficiency [3, 8]: 2 (6) N (%) | AE Anemia [3, 8]: 9 (29) N (%) | AE Cellulitis [3, 8]: 2 (6) N (%) | AE Chills [3, 8]: 8 (26) N (%) | AE Cough [3, 8]: 8 (26) N (%) | AE Decreased appetite [3, 8]: 16 (52) N (%) | AE Dehydration [3, 8]: 9 (29) N (%) | AE Dermatitis acneiform [3, 8]: 14 (45) N (%) | AE Diarrhea [3, 8]: 27 (87) N (%) | AE Dizziness [3, 8]: 5 (16) N (%) | AE Dry mouth [3, 8]: 5 (16) N (%) | AE Dysgeusia [3, 8]: 6 (19) N (%) | AE Dyspepsia [3, 8]: 4 (13) N (%) | AE Fatigue [3, 8]: 25 (81) N (%) | AE Headache [3, 8]: 15 (48) N (%) | AE Hypertension [3, 8]: 8 (26) N (%) | AE Hypotension [3, 8]: 8 (26) N (%) | AE Lipase increased [3, 8]: 5 (16) N (%) | AE Malaise [3, 8]: 4 (13) N (%) | AE Nausea [3, 8]: 28 (90) N (%) | AE Neutropenia [3, 8]: 5 (16) N (%) | AE Peripheral Edema [3, 8]: 13 (42) N (%) | AE Pruritus [3, 8]: 11 (35) N (%) | AE Pulmonary embolism [3, 8]: 5 (16) N (%) | AE Pyrexia [3, 8]: 11 (35) N (%) | AE Rash [3, 8]: 7 (23) N (%) | AE Seizure [3, 8]: 3 (10) N (%) | AE Thrombocytopenia [3, 8]: 7 (23) N (%) | AE Vomiting [3, 8]: 22 (71) N (%) | AMG 232-related AE abdominal pain, patients ([3]; all 31 patients): 16% | AMG 232-related AE anemia, patients ([3]; all 31 patients): 16% | AMG 232-related AE decreased appetite, patients ([3]; all 31 patients): 42% | AMG 232-related AE diarrhea, patients ([3]; all 31 patients): 77% | AMG 232-related AE dysgeusia, patients ([3]; all 31 patients): 13% | AMG 232-related AE fatigue, patients ([3]; all 31 patients): 74% | AMG 232-related AE increased lipase, patients ([3]; all 31 patients): 13% | AMG 232-related AE malaise, patients ([3]; all 31 patients): 13% | AMG 232-related AE nausea, patients ([3]; all 31 patients): 87% | AMG 232-related AE vomiting, patients ([3]; all 31 patients): 68% | Patients with serious AMG 232-related AEs ([3]; all 31 patients): 8 patients | Serious AMG 232-related AE diarrhea, patients ([3]; all 31 patients): 10% | Serious AMG 232-related AE nausea, patients ([3]; all 31 patients): 13% | Serious AMG 232-related AE pulmonary embolism, patients ([3]; all 31 patients): 6.5% | Serious AMG 232-related AE vomiting, patients ([3]; all 31 patients): 10% | SAE diarrhea, patients ([3]; all 31 patients, AMG 232 + T±D): 13% | SAE nausea, patients ([3]; all 31 patients, AMG 232 + T±D): 16% | SAE vomiting, patients ([3]; all 31 patients, AMG 232 + T±D): 16% | Treatment-emergent AE acneiform dermatitis, patients ([3]; all 31 patients, AMG 232 + T±D): 45% | Treatment-emergent AE decreased appetite, patients ([3]; all 31 patients, AMG 232 + T±D): 52% | Treatment-emergent AE diarrhea, patients ([3]; all 31 patients, AMG 232 + T±D): 87% | Treatment-emergent AE fatigue, patients ([3]; all 31 patients, AMG 232 + T±D): 81% | Treatment-emergent AE headache, patients ([3]; all 31 patients, AMG 232 + T±D): 48% | Treatment-emergent AE nausea, patients ([3]; all 31 patients, AMG 232 + T±D): 90% | Treatment-emergent AE peripheral edema, patients ([3]; all 31 patients, AMG 232 + T±D): 42% | Treatment-emergent AE pruritus, patients ([3]; all 31 patients, AMG 232 + T±D): 35.5% | Treatment-emergent AE pyrexia, patients ([3]; all 31 patients, AMG 232 + T±D): 35.5% | Treatment-emergent AE vomiting, patients ([3]; all 31 patients, AMG 232 + T±D): 71% | Patients with serious AEs (SAEs) ([3]; all 31 patients, AMG 232 + T±D, 24 patients): 77% | Patients withdrawn/discontinued from AMG 232 due to AEs ([3]; all 31 patients, seven patients): 23% | effective doses, dose-dependent antitumor activity [4]: 9.1 to 78 mg/kg | MTD of AMG 232 combined with dabrafenib plus trametinib ([5]; Arm 1): 120 mg | MTD of AMG 232 combined with trametinib ([5]; Arm 2): 120 mg | AUC24hr ([6]; Cycle 1 Day 7, AMG 232 monotherapy, Arm 1, 120 mg, geometric mean (CV%)): 5140 (59.4%) n = 4 hr•ng/mL | AUC24hr ([6]; Cycle 2 Day 7, co-administered with T, Arm 2, 180 mg, geometric mean (CV%)): 9410 (107.0%)^a n = 5 hr•ng/mL | Effect of trametinib ± dabrafenib on AMG 232 PK exposures (Cmax, AUC24hr) ([6]; cycle 2 day 7 vs cycle 1 day 7, Wilcoxon matched-pairs signed-rank test p>0.05): not significant; also recorded: not significantly altered | Cmax ([6]; human, plasma, oral, 120 mg, Cycle 1 Day 7, AMG 232 monotherapy, Arm 1, 120 mg, geometric mean (CV%)): 491 ng/mL | Cmax [6, 9]: 914 ng/mL | AUC(0-t) [6, 9]: 9810 ng·h/mL | Cmax [6, 10]: 392 ng/mL | AUC(0-t) [6, 10]: 3140 ng·h/mL | Cmax [6, 11]: 630 ng/mL | AUC(0-t) [6, 11]: 6740 ng·h/mL | Cmax [6, 12]: 847 ng/mL | AUC(0-t) [6, 12]: 5890 ng·h/mL | Cmax ([6]; human, plasma, oral, 180 mg, Cycle 1 Day 7, AMG 232 monotherapy, Arm 2, 180 mg, geometric mean (CV%)): 1250 ng/mL | Cmax [6, 13]: 647 ng/mL | AUC(0-t) [6, 13]: 4750 ng·h/mL | Cmax ([6]; human, plasma, oral, 180 mg, Cycle 2 Day 7, co-administered with T, Arm 2, 180 mg, geometric mean (CV%)): 1010 ng/mL | Cmax [6, 14]: 3300 ng/mL | AUC(0-t) [6, 14]: 21100 ng·h/mL | Cmax [6, 15]: 953 ng/mL | AUC(0-t) [6, 15]: 6280 ng·h/mL | Tmax ([6]; human, plasma, oral, Cycle 2 Day 7, co-administered with T, Arm 2, 240 mg, median (min-max)): 1.5 h
